Test [1] concerns Non-malignant MRC5-SVII cells. Kind of test: MTS cytotoxicity assay on MRC5-SVII. Format: cell-based. As to conditions: 72 hours of treatment. The method, then:
Cells were grown in Minimal Essential Medium—Non Essential Amino Acids (MEM NEAA) culture medium from Gibco™, supplemented with sodium pyruvate ([…]), and fetal calf serum (FCS, 10%) and treated with a broad range of concentrations of the 2nd comparative example of the formula (XI).
(Tetrazolium assays rely on reduction of a dye to a coloured formazan, in cell work by metabolically active cells.)

In test [2] the test system is H322 lung carcinoma cells. Kind of test: MTS cytotoxicity assay on H322. To be noted: NCI-H322; H322, 72 hours of treatment. It counts as cell-based.
Experimental: H322 lung carcinoma cells were seeded in 96-well plates together with the calix[4]arene of the formula (2). Cells were grown in RPMI-1640 supplemented with GlutaMAX™ (Gibco™) and fetal calf serum (FCS, 10%) and treated with a broad range of concentrations of the calix[4]arene of the formula (2). After 72 hours of treatment, the cytotoxicity was measured by means of the IC50 value, using the kit “CellTiter 96R AQuous One Solution Cell Proliferation Assay (MTS)” from Promega™. Following 30 minutes of incubation with the MTS reagent, the endpoint measurements were done in triplicate at 485 nm, using a fluorescence plate reader.
H322 lung carcinoma cells were seeded in 96-well plates together with the compound of the 2nd comparative example of the formula (XI). Cells were grown in RPMI-1640 supplemented with GlutaMAX™ (Gibco™) and fetal calf serum (FCS, 10%) and treated with a broad range of concentrations of the 2nd comparative example of the formula (XI). After 72 hours of treatment, the cytotoxicity was measured by means of the IC50 value, using the kit “CellTiter 96R AQuous One Solution Cell Proliferation Assay (MTS)” from Promega™. Following 30 minutes of incubation with the MTS reagent, the endpoint measurements were done in triplicate at 485 nm, using a fluorescence plate reader.
H322 lung carcinoma cells were seeded in 96-well plates together with the 1st comparative example of the formula (X). Cells were grown in RPMI-1640 supplemented with GlutaMAX™ (Gibco™) and fetal calf serum (FCS, 10%) and treated with a broad range of concentrations of the compound of the formula (X). After 72 hours of treatment, the cytotoxicity was measured by means of the IC50 value, using the kit “CellTiter 96R AQuous One Solution Cell Proliferation Assay (MTS)” from Promega™. Following 30 minutes of incubation with the MTS reagent, the endpoint measurements were done in triplicate at 485 nm, using a fluorescence plate reader.
H322 lung carcinoma cells were seeded in 96-well plates together with the tested calix[4]arenes. Cells were grown in RPMI-1640 supplemented with GlutaMAX™ (Gibco™) and fetal calf serum (FCS, 10%) and treated with a broad range of concentrations of the tested calix[4]arenes. After 72 hours of treatment, the cytotoxicity was measured by means of the IC50 value, using the kit “CellTiter 96R AQuous One Solution Cell Proliferation Assay (MTS)” from Promega™. Following 30 minutes of incubation with the MTS reagent, the endpoint measurements were done in triplicate at 485 nm, using a fluorescence plate reader.
Test [3] in a line: Cu^+ transport into liposomes with encapsulated BCS. To be noted: POPC/cholesterol 7:3 LUVs, calix[4]arene to lipid 1:1000, 50 μM copper gradient, F/F0 after 600 s. The method, then:
The ability of the examples of calix[4]arenes of the invention and the comparative examples to be delivered into a lipidic bilayer membrane of a liposome from a solution and their capacity to then act as a transporter of Cu^+ was evaluated using bathocuproine disulphonate (hereafter abbreviated “BCS”) encapsulated in large unilamellar vesicles (LUVs, also referred to as liposomes) composed of 1-palmitoyl-2-oleoyl-sn-glycero-3-phosphocholine and cholesterol in a 7:3 ratio.
BCS is a fluorescent water soluble phenantroline derivative that can be used as fluorescent dye for the sensing of Cu^+ through the formation of a non-fluorescent 2:1 complex.
Stock solution of lipids were prepared using deacidified CHCl3 and stored in a freezer. CHCl3 was deacidified by passing through activated basic alumina. The lipids used to prepare the liposomes were 2-oleoyl-1-palmitoyl-sn-glycero-3-phosphocholine (POPC), (purity ≥99%) and cholesterol (purity of 95%). 50 mM sodium phosphate buffer were prepared with Millipore water at pH 7 (±0.1) by mixing the solution of the mono- and the di-protonated phosphate salts. The solution of the dye (BCS) was prepared at 0.5 mM concentration in phosphate buffer.
The lipids solutions were mixed in different ratios in a 5 mL round bottom flask. The POPC/cholesterol molar ratio was 7:3 in all experiments. The total amount of lipids per batch varied depending on the amount of liposomes solution required for the experiment. After mixing the lipid solutions in a round bottom flask, the chloroform was evaporated under a gentle air flow and the resulting lipid film was dried at high vacuum for at least an hour. 500 μL of the BCS solution in phosphate buffer and a magnetic stir bar were added to the flask. The flask was then sonicated for 30 seconds and placed under magnetic agitation for at least an hour. The solution was frozen with liquid nitrogen and heated back to room temperature with warm water ten times to form large unilamellar vesicles (LUVs). The liposome solution was extruded 29 times, using an extrusion kit equipped with a membrane with 200 nm pores. Subsequently, the solution was eluted with the buffer solution used for the experiment through a size exclusion column (Sephadex G-25) to remove the external BCS and then diluted with phosphate buffer to obtain a concentration of 0.4 mM in lipids.
Solutions of the calix[4]arenes were prepared at a concentration of 0.24 mM in DMSO and 5 μL of the solution was added 2 minutes before each transport measurement.
Alternatively, calix[4]arenes were pre-incorporated by combining the calix[4]arene (dissolved in chloroform) with the lipids prior to the evaporation of the chloroform to obtain a lipid film. The concentrations and volumes were chosen to obtain a calix[4]arene to lipid of 1:1000.
Fluorescence measurements were performed with a Horiba FluoroMax 4 spectrometer using a 4-faced quartz cuvette (10 mm×10 mm). For the Cu^+ transport assay, the excitation was set at 278 nm and emission was recorded at 393 nm. These values correspond to the excitation and emission maxima of BCS encapsulated inside LUVs.
The Cu^+ solutions added to the liposomes were obtained by dissolving Cu(MeCN)4BF4 in MeCN at 15.25 mM concentration. The copper solution was then diluted by a factor 5 in a phosphate buffer during the first 30 seconds of the experiment to reach a copper concentration of 3.05 mM. 50 μL of the diluted copper solution was added to 3 mL of liposomes, resulting in a copper gradient of 50 μM. The fluorescence level was monitored for 600 seconds after the addition of the copper solution.
For each run the initial plateau and the initial vertical drop (due to the binding of the exterior dye with Cu^+ and the dilution, 1-4 seconds after the addition) were removed. Then the signal was normalised by dividing the fluorescence values (F) by the value at t=0 second (F0). […]

Test [4] concerns Hepatocellular carcinoma (HepG2/C3A) cells. The experiment in a line: MTT cytotoxicity assay (DL50). To be noted: 24 hours of incubation. It counts as cell-based. As to the method: Cytotoxicity was evaluated using the MTT assay. 1.10^4 cells per well were seeded in a flat-bottom 96-well plate and were incubated for 48 hours at 37° C. with 5% CO2 before addition of the different calix[4]arenes at concentrations up to 200 μM. In all experiments, each condition was performed in triplicate in the plate. Besides, each experiment was done three times independently. After 24 hours of incubation in presence of the compounds, medium was discarded, cells were rinsed with PBS and 100 μL of medium containing 0.5 mg/mL of MTT was added to each well. After 30 minutes of incubation at 37° C., MTT solution was discarded and formazan crystals formed were dissolved in 150 μL of 4 mM HCl, 0.1% NP40 in isopropanol. The absorbance in the wells were read in a microplate reader (Tecan microplate reader-550) at 570 nm.

A short description of test [5]: Cu^+ binding by 1H NMR titration. As to conditions: 1H NMR titration with Cu(MeCN)4BF4, CD3CN/CDCl3 4/1, 298 K. The method, then: Binding abilities and complexation constants of the examples of calix[4]arenes of the present invention and the comparative examples with Cu^+ were evaluated by ^1H NMR titrations at 298 K using copper(I)tetrakis(acetronitrile)tetrafluoroborate.
For example, for each separate calix[4]arene a stock solution of the tested calix[4]arene was prepared in a CD3CN/CDCl3, 4/1 mixture. Using this stock solution, a Cu(MeCN)4BF4 solution was prepared and added by steps of 0.25 equivalent of copper(I) up until 1 equivalent and then by steps of 0.5 equivalent until a total of at least 2 equivalents. ^1H NMR spectra were recorded at a 400 MHz spectrometer at 298 K for the stock solutions of the calix[4]arenes and after each addition of Cu(MeCN)4BF4.
Calix[4]arenes for which a gradual change of the chemical shifts of the ^1H NMR signals (>0.1 ppm for at least one of the signals) was observed upon addition of up to 4-5 equivalents of Cu(MeCN)4BF4 were considered to show weak binding.

For test [6], the system named is PC9 human lung cancer cells. Kind of test: MTS cytotoxicity assay on PC9. It counts as cell-based. As to conditions: PC9, 72 hours of treatment.
Experimental: PC9 human lung cancer cells were seeded in 96-well plates together with the calix[4]arene of the formula (2). Cells were grown in RPMI-1640 supplemented with GlutaMAX™ (Gibco™) and fetal calf serum (FCS, 10%) and treated with a broad range of concentrations of the calix[4]arene of the formula (2). After 72 hours of treatment, the cytotoxicity was measured by means of the IC50 value, using the kit “CellTiter 96R AQuous One Solution Cell Proliferation Assay (MTS)” from Promega™. Following 30 minutes of incubation with the MTS reagent, the endpoint measurements were done in triplicate at 485 nm, using a fluorescence plate reader.
PC9 human lung cancer cells were seeded in 96-well plates together with the 2nd comparative example of the formula (XI). Cells were grown in RPMI-1640 supplemented with GlutaMAX™ (Gibco™) and fetal calf serum (FCS, 10%) and treated with a broad range of concentrations of the compound of the 2nd comparative example of the formula (XI). After 72 hours of treatment, the cytotoxicity was measured by means of the IC50 value, using the kit “CellTiter 96R AQuous One Solution Cell Proliferation Assay (MTS)” from Promega™. Following 30 minutes of incubation with the MTS reagent, the endpoint measurements were done in triplicate at 485 nm, using a fluorescence plate reader. […]
Test [7] concerns A549 human lung cancer cells. The experiment in a line: MTS cytotoxicity assay on A549. Format: cell-based. To be noted: A549, 72 hours of treatment.
Experimental: A549 human lung cancer cells were seeded in 96-well plates together with the calix[4]arene of the formula (2). Cells were grown in RPMI-1640 supplemented with GlutaMAX™ (Gibco™) and fetal calf serum (FCS, 10%) and treated with a broad range of concentrations of the calix[4]arene of the formula (2). After 72 hours of treatment, the cytotoxicity was measured by means of the IC50 value, using the kit “CellTiter 96R AQuous One Solution Cell Proliferation Assay (MTS)” from Promega™. Following 30 minutes of incubation with the MTS reagent, the endpoint measurements were done in triplicate at 485 nm, using a fluorescence plate reader.
A549 human lung cancer cells were seeded in 96-well plates together with the compound of the 2nd comparative example of the formula (XI). Cells were grown in RPMI-1640 supplemented with GlutaMAX™ (Gibco™) and fetal calf serum (FCS, 10%) and treated with a broad range of concentrations of the 2nd comparative example of the formula (XI). After 72 hours of treatment, the cytotoxicity was measured by means of the IC50 value, using the kit “CellTiter 96R AQuous One Solution Cell Proliferation Assay (MTS)” from Promega™. Following 30 minutes of incubation with the MTS reagent, the endpoint measurements were done in triplicate at 485 nm, using a fluorescence plate reader. […]

Data on two compounds can be found in patent US20260015339A1, “CALIX[4]ARENES WITH HIGH ANTICANCER ACTIVITY” (UNIVERSITE GRENOBLE ALPES, priority 2023, published 2026).

On to `CCCOc1c2cccc1Cc1cccc(c1OCCC)Cc1cccc(c1OCCC)Cc1cccc(c1OCCC)C2` [(XI)], for which the IC50 is > 20 µM in test [1]; > 50 µM in test [2]; 184 µM in test [4]; > 50 µM in test [6]; > 50 µM in test [7]. In addition, the “Cu^+ transport” value in test [3] was “No (means that no significant decrease of the fluorescence of encapsulated BCS was observed upon addition of Cu^+ to the liposomes (F/F0 >0.65 after 600 s) when the calix[4]arene was either delivered from a solution in DMSO to liposomes or pre-incorporated into the liposomes)”. In test [5], the “Cu^+ binding” value is “Not significant (means that no significant changes of chemical shifts (<0.1 ppm) were observed upon addition of 4-5 equivalents of Cu(MeCN)4BF4)”.
Turning to `Cn1ccnc1COc1c2cccc1Cc1cccc(c1O)Cc1cccc(c1OCc1nccn1C)Cc1cccc(c1O)C2` [(6)], the IC50 in test [2] is > 10 µM; in test [4], 20.7 µM. In addition, the “Cu^+ transport” value in test [3] is “Yes (means that a significant decrease of the fluorescence of encapsulated BCS was observed upon addition of Cu^+ to the liposomes (F/F0<0.65 after 600 s))”. In test [5], the “Cu^+ binding” value was “Strong binding (means an affinity constant (Ka) equal or greater than 10^5 M^−1)”.

The IC50 is the concentration that gives 50% inhibition. A higher IC50 goes with weaker potency.
